# From patent US8796244B2, “Imidazopyridine derivatives as inhibitors of receptor tyrosine kinases” (Astex Therapeutics Ltd, priority 2008, dated 2014)
# Where a name gives a salt, the structure may show the parent alone. Read-outs that look alike come from different tables or passages of the source.
# Tested on: parental wild-type Ba/F3 cells
# Assay: Ba/F3 (WT) cell proliferation assay (Alamar Blue)
# Format: cell-based
# Settings: Mus musculus; for inhibition at 3 µM / inhibition at 10 µM / inhibition at 1 µM: BaF3, read-out: BaF3 WT prolif, % inhibition
# [1] = BaF3, 72 hours, Alamar Blue, read-out: BaF3 WT prolif
# [2] = BaF3, 72 h, read-out: BaF3 WT prolif (μM)
Compound,IC50 [1] [µM],inhibition at 10 µM [%],other results
CC(C)n1ccnc1C#Cc1ccn2c(-c3cccc(NC(=O)NCC(F)(F)F)c3)cnc2c1 [Compound 266],1.4,–,–
O=C(NCC(F)(F)F)Nc1cccc(-c2cnc3cc(-c4nccc(N5CCNCC5)n4)ccn23)c1 [Compound 269],–,–,inhibition at 3 µM: 0%
Nc1nc(-c2ccn3c(-c4cccc(NC(=O)NCC(F)(F)F)c4)cnc3c2)ncc1C(=O)O [Compound 277],–,0,–
Cn1ccnc1C#Cc1ccn2c(-c3cccc(NC(=O)NCC(F)(F)F)c3)cnc2c1 [Compound 282],2.8,23,–
CCOC(=O)c1cnc(-c2ccn3c(-c4cccc(NC(=O)NCC(F)(F)F)c4)cnc3c2)nc1N [Compound 287],0.99,–,–
COC(=O)c1cnc(-c2ccn3c(-c4cccc(NC(=O)NCC(F)(F)F)c4)cnc3c2)nc1 [Compound 290],–,–,inhibition at 1 µM: 16%
CC(=O)c1cnc(-c2ccn3c(-c4cccc(NC(=O)NCC(F)(F)F)c4)cnc3c2)nc1 [Compound 292],–,38,–
CC(F)(F)c1cnc(-c2ccn3c(-c4cccc(NC(=O)NCC(F)(F)F)c4)cnc3c2)nc1 [Compound 293],–,–,inhibition at 3 µM: 36%
O=C(NCC(F)(F)F)Nc1cc(Br)cc(-c2cnc3cc(-c4ccnc(C(F)(F)F)n4)ccn23)c1 [Compound 294],–,–,inhibition at 3 µM: 22%
O=C(NCC(F)(F)F)Nc1cc(CO)cc(-c2cnc3cc(-c4ccnc(C(F)(F)F)n4)ccn23)c1 [Compound 295],–,30,–
O=C(NCC(F)(F)F)Nc1cc(Cl)cc(-c2cnc3cc(-c4ccnc(C(F)(F)F)n4)ccn23)c1 [Compound 297],5.5,–,–
COc1cc(NC(=O)NCC(F)(F)F)cc(-c2cnc3cc(-c4ccnc(C(F)(F)F)n4)ccn23)c1 [Compound 298],3,–,–
N#Cc1cc(NC(=O)NCC(F)(F)F)cc(-c2cnc3cc(-c4ccnc(C(F)(F)F)n4)ccn23)c1 [Compound 299],–,–,inhibition at 1 µM: 17%
Nc1nc(-c2ccn3c(-c4cc(Cl)cc(NC(=O)NCC(F)(F)F)c4)cnc3c2)ncc1F [Compound 300],–,0,–
O=C(NCC(F)(F)F)Nc1cc(-c2cnc3cc(-c4ncccn4)ccn23)cc(C(F)(F)F)c1 [Compound 301],2.81,–,–
O=C(NCC(F)(F)F)Nc1cc(F)cc(-c2cnc3cc(-c4ncccn4)ccn23)c1 [Compound 302],–,0,–
O=C(NCC(F)(F)F)Nc1cc(O)cc(-c2cnc3cc(-c4ccnc(C(F)(F)F)n4)ccn23)c1 [Compound 303],–,0,–
Nc1nc(-c2ccn3c(-c4cc(F)cc(NC(=O)NCC(F)(F)F)c4)cnc3c2)ncc1F [Compound 305],–,6,–
CC(=O)c1cnc(-c2ccn3c(-c4cccc(NC(=O)NCC(F)(F)F)c4)cnc3c2)nc1N [Compound 308],–,0,–
O=C(NCC(F)(F)F)Nc1cc(Cl)cc(-c2cnc3cc(-c4ncccn4)ccn23)c1 [Compound 309],2.3,–,–
Nc1cnc(-c2ccn3c(-c4cccc(NC(=O)NCC(F)(F)F)c4)cnc3c2)nc1N [Compound 312],–,3,–
CNc1nc(-c2ccn3c(-c4cccc(NC(=O)NCC(F)(F)F)c4)cnc3c2)ncc1N [Compound 313],–,18,–
CCOC(=O)Nc1nc(-c2ccn3c(-c4cccc(NC(=O)NCC(F)(F)F)c4)cnc3c2)ncc1F [Compound 315],–,35,–
Nc1nc(-c2ccn3c(-c4cccc(NC(=O)NCC(F)(F)F)c4)cnc3c2)ncc1OCCO [Compound 316],–,0,–
CC(C)(C)OC(=O)NCC1CCN(c2ccc(-c3ccn4c(-c5cccc(NC(=O)NCC(F)(F)F)c5)cnc4c3)cn2)CC1 [Compound 318],0.42,–,–
CC(C)(O)c1cccc(-c2ccn3c(-c4cccc(NC(=O)NCC(F)(F)F)c4)cnc3c2)c1 [Compound 320],0.71,–,–

Compound,IC50 [1] [µM],inhibition at 10 µM [%],other results
Nc1cc(C(F)(F)F)nc(-c2ccn3c(-c4cccc(NC(=O)NCC(F)(F)F)c4)cnc3c2)n1 [Compound 322],1.2,–,–
CC(C)c1cc(N)nc(-c2ccn3c(-c4cccc(NC(=O)NCC(F)(F)F)c4)cnc3c2)n1 [Compound 323],–,–,inhibition at 1 µM: 0%
COCc1cc(N)nc(-c2ccn3c(-c4cccc(NC(=O)NCC(F)(F)F)c4)cnc3c2)n1 [Compound 324],–,9.4,–
Cc1nnc(-c2ccn3c(-c4cccc(NC(N)=O)c4)cnc3c2)o1 [Compound 328],–,–,inhibition at 3 µM: 34%
Nc1nc(-c2ccn3c(-c4cccc(NC(=O)NCC(F)(F)F)c4)cnc3c2)ncc1CO [Compound 332],–,0,–
O=C(NCC(F)(F)F)Nc1cccc(-c2cnc3cc(-c4ncc(C(=O)O)cn4)ccn23)c1 [Compound 333],–,–,inhibition at 1 µM: 0%
COCc1cc(-c2ccn3c(-c4cccc(NC(=O)NCC(F)(F)F)c4)cnc3c2)nc(N)n1 [Compound 335],0.74,20,–
"CC(C)(C(=O)NC1CC1)n1cc(-c2ccn3c(-c4cccc(NC(=O)NCC(F)(F)F)c4)cnc3c2)cn1 [Example 71, N-Cyclopropyl-2-[4-(3-{3-[3-(2,2,2-trifluoro-ethyl)-ureido]-phenyl}-imidazo[1,2-a]pyridin-yl)-pyrazol-1-yl)-isobutyramide]",1.5,–,–
"Cc1cc2ncc(-c3cccc(NC(=O)NCC(F)(F)F)c3)n2cc1C [Example 77, 1-[3-(6,7-Dimethyl-imidazo[1,2-a]pyridin-3-yl)-phenyl]-3-(2,2,2-trifluoro-ethyl)-urea formate]",–,53,–
"Nc1nccnc1-c1ccn2c(-c3cccc(NC(=O)NCC(F)(F)F)c3)cnc2c1 [Example 84, 1-{3-[7-(3-Amino-pyrazin-2-yl)-imidazo[1,2-a]pyridin-3-yl]-phenyl}-3-(2,2,2-trifluoro-ethyl)-urea]",1.4,–,–
"O=C(NCC(F)(F)F)Nc1cccc(-c2cnc3cc(-c4cc(F)ccn4)ccn23)c1 [Example 103, 1-{3-[7-(4-Fluoro-pyridin-2-yl)-imidazo[1,2-a]pyridin-3-yl]-phenyl}-3-(2,2,2-trifluoro-ethyl)-urea]",0.078,–,–
"Cc1cccnc1-c1ccn2c(-c3cccc(NC(=O)NCC(F)(F)F)c3)cnc2c1 [Example 104, 1-{3-[7-(3-Methyl-pyridin-2-yl)-imidazo[1,2-a]pyridin-3-yl]-phenyl}-3-(2,2,2-trifluoro-ethyl)-urea formate]",–,–,IC50 [2]: 0.4 µM
"O=C(NCC(F)(F)F)Nc1cccc(-c2cnc3cc(-c4cnc(O)cn4)ccn23)c1 [Example 105, 1-{3-[7-(5-Hydroxy-pyrazin-2-yl)-imidazo[1,2-a]pyridin-3-yl]-phenyl}-3-(2,2,2-trifluoro-ethyl)-urea hydrochloride]",–,16,–
"Nc1cccc(-c2ccn3c(-c4cccc(NC(=O)NCC(F)(F)F)c4)cnc3c2)n1 [Example 106, 1-{3-[7-(6-Amino-pyridin-2-yl)-imidazo[1,2-a]pyridin-3-yl]-phenyl}-3-(2,2,2-trifluoro-ethyl)-urea hydrochloride]",–,–,IC50 [2]: 0.41 µM
"O=C(NCC(F)(F)F)Nc1cccc(-c2cnc3cc(-c4cccc(CCO)c4)ccn23)c1 [Example 107, 1-(3-{7-[3-(2-Hydroxy-ethyl)-phenyl]-imidazo[1,2-a]pyridin-yl}-phenyl)-3-(2,2,2-trifluoro-ethyl)-urea formate]",–,–,IC50 [2]: 0.89 µM
"O=C(NCC(F)(F)F)Nc1cccc(-c2cnc3cc(-c4nccc(N5CCC(O)CC5)n4)ccn23)c1 [Example 109, 1-(3-{7-[4-(4-Hydroxy-piperidin-1-yl)-pyrimidin-2-yl]-imidazo[1,2-a]pyridin-3-yl}-phenyl)-3-(2,2,2-trifluoro-ethyl)-urea]",32,–,–
"Cc1nnc(-c2ccn3c(-c4cccc(NC(=O)NCC(F)(F)F)c4)cnc3c2)nc1C [Example 118, 1-{3-[7-(5,6-Dimethyl-[1,2,4]triazin-3-yl)-imidazo[1,2-a]pyridin-3-yl]-phenyl}-3-(2,2,2-trifluoro-ethyl)-urea hydrochloride]",–,–,IC50 [2]: 0.88 µM
"NC(=O)Nc1cccc(-c2cnc3cc(Cl)ccn23)c1 [Example 119, [3-(7-Chloro-imidazo[1,2-a]pyridin-3-yl)-phenyl]-urea]",–,–,inhibition at 3 µM: 23%
"CN(C)c1ccnc(-c2ccn3c(-c4cccc(NC(=O)NCC(F)(F)F)c4)cnc3c2)n1 [Example 120, 1-{3-[7-(4-Dimethylamino-pyrimidin-2-yl)-imidazo[1,2-a]pyridin-3-yl]-phenyl}-3-(2,2,2-trifluoro-ethyl)-urea hydrochloride]",–,–,IC50 [2]: 1.1 µM
"O=C(NCC(F)(F)F)Nc1cccc(-c2cnc3cc(-c4ccc(CCO)cn4)ccn23)c1 [Example 122, 1-(3-{7-[5-(2-Hydroxy-ethyl)-pyridin-2-yl]-imidazo[1,2-a]pyridin-3-yl}-phenyl)-3-(2,2,2-trifluoro-ethyl)-urea]",2.4,–,–
"O=C(NCC(F)(F)F)Nc1cncc(-c2cnc3cc(-c4cnn(C5CNC5)c4)ccn23)c1 [Example 123, 1-{5-[7-(1-Azetidin-3-yl-1H-pyrazol-4-yl)-imidazo[1,2-a]pyridin-3-yl]-pyridin-3-yl}-3-(2,2,2-trifluoro-ethyl)-urea formate]",–,–,IC50 [2]: 8.9 µM
"Nc1cccnc1-c1ccn2c(-c3cccc(NC(=O)NCC(F)(F)F)c3)cnc2c1 [Example 125, 1-{3-[7-(3-Amino-pyridin-2-yl)-imidazo[1,2-a]pyridin-3-yl]-phenyl}-3-(2,2,2-trifluoro-ethyl)-urea hydrochloride]",–,–,IC50 [2]: 2.1 µM
"O=C(NCC(F)(F)F)Nc1cccc(-c2cnc3cc(-c4ccc(OC5CCNCC5)nn4)ccn23)c1 [Example 130, 1-(3-{7-[6-(Piperidin-4-yloxy)-pyridazin-3-yl]-imidazo[1,2-a]pyridin-3-yl}-phenyl)-3-(2,2,2-trifluoro-ethyl)-urea]",–,26,–
"O=C(NCC(F)(F)F)Nc1cccc(-c2cnc3cc(-c4ccc(OC5CCCNC5)nn4)ccn23)c1 (centres unmarked) [Example 131, 1-(3-{7-[6-(Piperidin-3-yloxy)-pyridazin-3-yl]-imidazo[1,2-a]pyridin-3-yl}-phenyl)-3-(2,2,2-trifluoro-ethyl)-urea]",–,2.9,–
"Cc1cc(-c2ccn3c(-c4cccc(NC(=O)NCC(F)(F)F)c4)cnc3c2)nnc1Cl [Example 135, 1-{3-[7-(6-Chloro-5-methyl-pyridazin-3-yl)-imidazo[1,2-a]pyridin-3-yl]-phenyl}-3-(2,2,2-trifluoro-ethyl)-urea]",0.51,–,–
